Source: patent EP4420661B1, “SMALL MOLECULES TARGETING GLYCOPROTEIN VI AS ANTIPLATELET AGENTS FOR USE IN THE PREVENTION AND/OR TREATMENT OF THROMBOSIS AND ASSOCIATED PATHOLOGIES” (Universidade de Santiago de Compostela, priority 2023, dated 2024)

Assays:
[1] = plasma protein binding, Rapid Equilibrium Dialysis (RED), human; type: in vitro ADME; settings: 4h at 37°C
Method: (§1) Plasma from Seralab was employed in the assay and was carried out by employing Rapid Equilibrium Dialysis (RED) from Thermo Scientific.
(§2) The compounds were dissolved at 5 µM in plasma and added to the corresponding insert of the RED device. Dialysis buffer was added to the corresponding insert of the RED device. Plate was incubated for 4h at 37°C.
(§3) After the incubation period 50 µL aliquots of each chamber were transferred to empty vials. 50 µL of dialysis buffer were added to the plasma samples and 50 µL of plasma were added to the buffer samples. 300 µL of acetonitrile were added to all the samples and centrifuged at 4000 rpm 100 µL aliquots of the supernatants were transferred to a LC analysis plate. Samples were analyzed in a UPLC/MS/MS. Stationary phase: Acquity UPLC® BEHC18 1,7 µm (2.1 mm x 50 mm) (Waters). Gradient: A (H2O + 0.1% Formic acid); B (ACN + 0.1% Formic acid); Flow: 0.6mL/min Table 8: UPLC gradient / Protein binding assay
(§4) The chromatographic equipment employed was an ACQUITY UPLC / Xevo TQD System. Compound concentrations were calculated from the MS peak areas. Table 9: Plasma protein binding of the compounds of formula (I) in rat, mice, dogs and humans / (*) low recovery

Plasma protein [2] = experiment: as above; type: in vitro ADME; settings: 5 µM, 4h at 37°C
Method: as §1, §2, §3, §4

[3] = plasma protein binding, Rapid Equilibrium Dialysis (RED), rat; type: in vitro ADME; settings: 4h at 37°C
Method: as §1, §2, §3, §4

Plasma protein [4] = experiment: as above; type: in vitro ADME; settings: 5 µM, 4h at 37°C
Method: as §1, §2, §3, §4

human platelets [5] = experiment: platelet aggregation assay, CRP-induced; type: cell-based; settings: Homo sapiens, Platelet, CRP 1 µg/mL
Method: Platelet aggregation assays were carried out to assess the potency of the active compounds as previously described [Barrachina et al. (2021)].
Briefly, human platelets from at least =7 healthy individuals were isolated and washed. Then, the suspension was incubated with the compounds at 10 µM at 37 ∘C for 4 min in a Chrono-log® 490-X aggregometer (Chrono-log Corporation, Havertown, PA, USA). After that, platelets were stimulated with the agonist CRP at 1 µg/mL for 5 min.

[6] = metabolic stability, dog microsomes; type: in vitro ADME; settings: Dog microsomes
Method: (§5) Microsomes from Tebu-bio Xenotech were employed in the assay, having a content of 20 mg/ml of protein. The following quantities were added to each well of a 96-well microplate. Table 6: Metabolic stability assay.
(§6) Plates were incubated at 37°C and 75 µL samples were taken at 0, 10, 20, 40 and 60 minutes.
(§7) Samples were transferred to a microplate and 75 µl Acetonitrile + IS(Rolipram) were added for inactivating the microsomes, and 30 µl of H2O with 0.5% formic acid for improving the chromatographic conditions and kept at 4°C. When all the samples were taken the plate was centrifuged at […] for 30 min at 15°C. Stationary phase: ACQUITY BEH C18 1.7µm 2.1x50mm (Waters) Mobile phase: A: 0.1% formic; B: acetonitrile+0.1% formic acid Gradient: Table 6: UPLC gradient / Metabolic stability assay
(§8) Metabolic stability was calculated from the logarithm of the remaining compound at each of the times evaluated.

human platelets [7] = experiment: intracellular Ca+2 mobilization assay, CRP-activated washed platelets (FLIPR Calcium 4); type: cell-based; settings: Platelet, calcium mobilization in human platelets, read-out: % Inhibition of CRP effect at 1µM, Mean
Method: An intracellular Ca^+2 mobilization assay was used to test the activity of the ligands in platelets. This assay measures the changes in calcium in real time by fluorophore dye Calcium 4, providing a useful way to characterize platelet activation by GPVI signaling [Barrachina et al. (2021)].
Washed platelets (5x10E6) were incubated with FLIPR Calcium 4 reagent (Molecular Devices LLC, San Jose, CA, USA) in a 384-well transparent bottom plate (Greiner Bio-One International GmbH, Kremsmünster, Austria) and supplemented with Probenecid (Invitrogen™, Carlsbad, CA, USA) 0.07% for 1 h at 37 °C. Platelets were co-incubated for 10 min with the tested compounds and inhibitors of secondary mediators (2 U/mL apyrase and 10 microM indomethacin (Sigma-Aldrich, Saint Louis, MO, USA)) under nonaggregating conditions (9 microM eptifibatide (Cayman Chemicals, Ann Arbor, MI, USA)). Then, the GPVI-specific agonist Collagen-Related Peptide (CRP) was added to the platelet suspension at different doses. Both potential GPVI inhibitors and CRP were automatically dispensed by FDSS7000EX Functional Drug Screening System (Hamamatsu Photonics, Hamamatsu, Japan). Intracellular Ca^2+ mobilization was assessed by measuring fluorescence changes ([…] wavelengths) in real time for 15 min after the addition of the agonist. 100% was expressed as maximal Ca^2+ release in platelets treated with the agonist CRP. To determine IC50, compounds were tested at 9 different concentrations in duplicates starting from 10 uM and performing 1:3 serial dilutions. The analysis of the data was performed with GraphPad Prism® software (version 6.0e, March 2014) (GraphPad Software, San Diego, CA, USA) by carrying out a nonlinear regression fit for log(inhibitor) vs. relative CRP activity using a Hill slope of -1, and top and bottom constraints of 100 and 0, respectively.

[8] = metabolic stability, human microsomes; type: in vitro ADME
Method: as §5, §6, §7, §8

[9] = metabolic stability, rat microsomes; type: in vitro ADME; settings: Rat microsomes
Method: as §5, §6, §7, §8

human platelets [10] = experiment: platelet spreading assay on CRP (phalloidin staining, confocal microscopy); type: cell-based; settings: 10µM; CRP 1µg/mL; Figure 4
Method: Platelet spreading experiments were carried out to assess the potency of the compounds of formula (I), exemplified by compounds (If)and (Ih).
Platelets can change from a rounded, non-adherent form to adhere and flatten shape when exposed to ligands. This "spreading" effect can lead to the formation of cytoskeletal protein rearrangement. Platelet adhesion and extent of spreading (area covered) can be quantified.
Briefly, human platelets from healthy individuals were isolated and washed. Then, platelets were incubated with the inhibitors at 10µM for 5 min at room temperature and then for 45 min at 37°C in coverslips coated with 1µg/mL of agonist (CRP).
The images of platelet shape given by phalloidin staining were acquired by confocal fluorescence microscopy and the area analyzed by ImageJ [Onselaer et al., (2020)].

[11] = metabolic stability, mouse microsomes; type: in vitro ADME
Method: Samples were transferred to a microplate and 75 µl Acetonitrile + IS(Rolipram) were added for inactivating the microsomes, and 30 µl of H2O with 0.5% formic acid for improving the chromatographic conditions and kept at 4°C. When all the samples were taken the plate was centrifuged at 46000 g for 30 min at 15°C. Stationary phase: ACQUITY BEH C18 1.7µm 2.1x50mm (Waters) Mobile phase: A: 0.1% formic; B: acetonitrile+0.1% formic acid Gradient: Table 6: UPLC gradient / Metabolic stability assay

SMILES: O=C(Cc1ccc2c(c1)OCCO2)Nc1nc(-c2ccc3c(c2)CCC(=O)N3)cs1 [Compound (If)]
- fraction unbound at 4 h, 5 µM [1]: 0.0011
- Unbound fraction (Plasma protein [2]): 0.11%
- fraction unbound at 4 h, 5 µM [3]: 0.001
- Unbound fraction (Plasma protein [4]): 0.10%
- inhibition at 10 µM (human platelets [5]): 70 ± 19%
- half-life [6]: 5.42 h
- microsomal CLint [6]: 2.17 µL/min/mg
- % remanent (*) ([6]; (*) sampling time 60 min): 89.2%
- inhibition at 1 µM (human platelets [7]): 31%
- half-life [8]: 0.781 h
- microsomal CLint [8]: 10.1 µL/min/mg
- % remanent (*) ([8]; (*) sampling time 60 min): 41.21%
- half-life [9]: 1.03 h
- microsomal CLint [9]: 8.89 µL/min/mg
- % remanent (*) ([9]; (*) sampling time 60 min): 49.9%
- platelet spreading on CRP (in words) (human platelets [10]): inhibition of platelet spreading on CRP
- half-life [11]: 1.82 h
- microsomal CLint [11]: 7.09 µL/min/mg
- % remanent (*) ([11]; (*) sampling time 60 min): 71.6%
